Results from patent publication US4939168A, “Discodermolide compounds, compositions containing same and methods of preparation and use” (Harbor Branch Oceanographics Institution, Inc., priority 1989, dated 1990).
Converted amounts (≈) assume the structure as drawn.

Tests used:
Format in all cases: cell-based
[1] = murine lymphocyte viability assay (LCV), 3H-thymidine incorporation; conditions: mouse, splenocytes, read-out: % LCV Control (percent of the control LCV response)
Procedure: (§1) The pure compound discodermolide I, was tested for immunosuppressive effects on the MLR and LCV assays using murine splenocytes and in the human MLR and mitogen stimulation assays, using human peripheral blood lymphocytes (PBL). Cellular proliferation was determined using incorporation of ^3 H-thymidine.

murine splenocytes [2] = experiment: as above
Procedure: as §1

[3] = system: human peripheral blood lymphocytes (PBL); experiment: PHA mitogenesis of human lymphocytes (mitogen stimulation assay); conditions: for PHA (counts per minute of incorporated 3H-thymidine): PHA 10.0 μg/ml, control 412200
Procedure: as §1
^2 Counts per minute of incorporated ^3 Hthymidine. Conc. of PHA

[4] = system: murine P388 leukemia cells; experiment: P388 cytotoxicity (antiproliferative effect, MTT); conditions: Mus musculus, 48-h exposure
Procedure: The crude ethanolic extract of the sponge and the pure compound I were tested for toxicity against murine P388 leukemia cells. P388 cells obtained from Dr. J. Mayo, National Cancer Institute, Bethesda, MD, were maintained in Roswell Park Memorial Institute (RPMI) medium 1640 supplemented with 10% horse serum. All cell lines were cultured in plastic tissue culture flasks and kept in an incubator at 37° C. in humidified air containing 5% CO2. Antibiotic-free stock cultures of P388 cells were subcultured to 10^5 cells/ml by dilution in fresh growth medium at 2 to 3 day intervals. The mean generation time of primary cultures was 14 to 17 hr.
To assess the antiproliferative effects of agents against P388 cells, 200 μl cultures (96-well tissue culture plates, Nunc, Denmark) were established at 1×10^5 cells/ml in drug-free medium or medium containing the crude extract at a final dilution of 1:500 or discodermolide at various concentrations. Solvent for all dilutions was methanol, which was removed from plates under vacuum. All experimental cultures were initiated in medium containing Gentamycin sulfate (50 μg/ml; Schering Corporation, Kenilworth, NJ). After 48-h exposures, P388 cells were enumerated using 3-[4,5-Dimethylthiazol-2-yl]-2,5-diphenyltetrazolium bromide (MTT) as described below (M. C. Alley, et al., Cancer Res. 48:589, 1988).
To quantitate the effects on cell proliferation, 75 μl of warm growth medium containing 5 mg/ml MTT was added to each well and cultures were returned to the incubator for 90 minutes. To spectrophotometrically quantitate formation of reduced formazan, plates were centrifuged (900×g, 5 minutes), culture fluids removed by aspiration, and 200 μl of acidified isopropanol (2 ml concentrated HCl/liter isopropanol) added per well. The absorbance of the resulting solutions were measured at 570 nm with a plate reader (MR700 Microplate Reader, Dynatech, Laboratories, Chantilly, Va.). […] A linear relationship between P388 cell number and formazan production was found over the range of cell densities observed in these experiments.

[5] = system: human peripheral blood lymphocytes (PBL); experiment: Con A mitogenesis of human lymphocytes (mitogen stimulation assay); conditions: for Con A (counts per minute of incorporated 3H-thymidine): Con A 10.0 μg/ml, control 262000
Procedure: as §1
^1 Counts per minute of incorporated ^3 Hthymidine. Conc. of Con

[6] = viability of human PBL in the Con A and PHA stimulation assays; conditions: peripheral blood lymphocytes, 50 and 25 μg/ml
Procedure: as §1

[7] = viability of cells in the human mixed lymphocyte reaction, M.T.T. metabolism
Procedure: as §1
^2 % Viable cells as measured by M.T.T. metabolism

murine splenocytes [8] = experiment: murine two-way mixed lymphocyte reaction (MLR), 3H-thymidine incorporation
Procedure: as §1

[9] = system: human peripheral blood lymphocytes (PBL); experiment: human mixed lymphocyte reaction (MLR), 3H-thymidine incorporation; conditions: for CPM (counts per minute of incorporated 3H-thymidine): control 48064
Procedure: as §1
^1 Counts per minute of incorporate ^3 Hthymidine

[10] = 50 and 25 μg/ml, mitogen 10 μg/ml

C=C/C=C\C(C)C(OC(N)=O)C(C)C(O)C(C)C/C(C)=C\C(C)C(O)C(C)/C=C\C(O)CC1OC(=O)C(C)C(O)C1C (single isomer, unassigned) [Discodermolide, discodermolide]
viability ([1]; 0.5 μg/ml): 151%
viability ([1]; 5 μg/ml): 68%
viability ([1]; 50 μg/ml): 26%
viability ([1]; 500 μg/ml): < 1%
toxicity in the murine assay (in words) (murine splenocytes [2]; 0.5 μg/ml): no associated toxicity
toxicity in the murine assay (in words) (murine splenocytes [2]; 500, 50 and 5 μg/ml): with associated toxicity
PHA (counts per minute of incorporated 3H-thymidine) ([3]; 6.3 μg/ml): 441580 Counts per minute
PHA (counts per minute of incorporated 3H-thymidine) ([3]; 12.5 μg/ml): 391633 Counts per minute
PHA (counts per minute of incorporated 3H-thymidine) ([3]; 25 μg/ml): 14425 Counts per minute
PHA (counts per minute of incorporated 3H-thymidine) ([3]; 50 μg/ml): 16984 Counts per minute
suppression of PHA stimulation of human PBL (in words) [3, 10]: suppressed
inhibition at 0.125 µg/mL ([4]; 0.125 μg/ml): 2%
inhibition at 0.25 µg/mL ([4]; 0.25 μg/ml): 12%
inhibition at 0.5 µg/mL ([4]; 0.5 μg/ml): 49%
inhibition at 1 µg/mL ([4]; 1.0 μg/ml): 75%
inhibition at 2.5 µg/mL ([4]; 2.5 μg/ml): 87%
inhibition at 5 µg/mL ([4]; 5 μg/ml): 88%
inhibition at 10 µg/mL ([4]; 10 μg/ml): 90%
inhibition at 20 µg/mL ([4]; 20 μg/ml): 92%
IC50 ([4]; read-out: IC50 (concentration resulting in 50% inhibition of proliferation)): 0.5 µg/mL (≈ 0.842 µM)
Con A (counts per minute of incorporated 3H-thymidine) ([5]; 6.3 μg/ml): 299518 Counts per minute
Con A (counts per minute of incorporated 3H-thymidine) ([5]; 12.5 μg/ml): 213740 Counts per minute
Con A (counts per minute of incorporated 3H-thymidine) ([5]; 25 μg/ml): 11567 Counts per minute
Con A (counts per minute of incorporated 3H-thymidine) ([5]; 50 μg/ml): 10230 Counts per minute
suppression of Con A stimulation of human PBL (in words) [5, 10]: suppressed
viability [6]: > 91%
viability ([7]; peripheral blood lymphocytes, 0.4 μg/ml, read-out: % Viability (% viable cells as measured by M.T.T. metabolism)): 115%
viability ([7]; peripheral blood lymphocytes, 1.6 μg/ml, read-out: % Viability (% viable cells as measured by M.T.T. metabolism)): 110%
viability ([7]; peripheral blood lymphocytes, 3.1 μg/ml, read-out: % Viability (% viable cells as measured by M.T.T. metabolism)): 94%
viability ([7]; peripheral blood lymphocytes, 6.3 μg/ml, read-out: % Viability (% viable cells as measured by M.T.T. metabolism)): 94%
viability ([7]; peripheral blood lymphocytes, 12.5 μg/ml, read-out: % Viability (% viable cells as measured by M.T.T. metabolism)): 94%
viability ([7]; peripheral blood lymphocytes, 25 μg/ml, read-out: % Viability (% viable cells as measured by M.T.T. metabolism)): 102%
viability ([7]; peripheral blood lymphocytes, 50 μg/ml, read-out: % Viability (% viable cells as measured by M.T.T. metabolism)): 204%
viability ([7]; peripheral blood lymphocytes, 50, 25, 12.5, 6.3, 3.1 and 1.6 μg/ml, read-out: viability in the human MLR): > 94%
immunosuppressive activity in the murine MLR (in words) (murine splenocytes [8]; 0.5 μg/ml): immunosuppressive
immunosuppressive activity in the murine MLR (in words) (murine splenocytes [8]; 500, 50 and 5 μg/ml): exhibited immunosuppressive activity
activity at 0.5 µg/mL (murine splenocytes [8]; Mus musculus, Splenocyte, 0.5 μg/ml, read-out: % MLR Control (percent of the control MLR response)): 18%
activity at 5 µg/mL (murine splenocytes [8]; Mus musculus, Splenocyte, 5 μg/ml, read-out: % MLR Control (percent of the control MLR response)): 25%
activity at 50 µg/mL (murine splenocytes [8]; Mus musculus, Splenocyte, 50 μg/ml, read-out: % MLR Control (percent of the control MLR response)): < 1%
activity at 500 µg/mL (murine splenocytes [8]; Mus musculus, Splenocyte, 500 μg/ml, read-out: % MLR Control (percent of the control MLR response)): < 1%
CPM (counts per minute of incorporated 3H-thymidine) ([9]; 0.4 μg/ml): 64211 CPM
CPM (counts per minute of incorporated 3H-thymidine) ([9]; 0.8 μg/ml): 49509 CPM
CPM (counts per minute of incorporated 3H-thymidine) ([9]; 1.6 μg/ml): 26336 CPM
CPM (counts per minute of incorporated 3H-thymidine) ([9]; 3.1 μg/ml): 8532 CPM
CPM (counts per minute of incorporated 3H-thymidine) ([9]; 6.3 μg/ml): 4996 CPM
CPM (counts per minute of incorporated 3H-thymidine) ([9]; 12.5 μg/ml): 2091 CPM
CPM (counts per minute of incorporated 3H-thymidine) ([9]; 25 μg/ml): 1728 CPM
CPM (counts per minute of incorporated 3H-thymidine) ([9]; 50 μg/ml): 1932 CPM
immunosuppressive activity in the human MLR (in words) ([9]; 50, 25, 12.5, 6.3, 3.1 and 1.6 μg/ml): immunosuppressive
